These results are taken from patent publication US9279107B2, “Simplified basic media for human pluripotent cell culture” (WISCONSIN ALUMNI RESEARCH FOUNDATION, priority 2010, dated 2016).

Assay [1] has as its system human fibroblasts. Put plainly: Reprogramming efficiency of human fibroblasts in E8-based medium. To be noted: E8 versus MEF feeder cells or TeSR; butyrate 100 μM with or without TGF-β. It is filed as cell-based.
For assay [2], the system named is foreskin cells. In words: Reprogramming of foreskin fibroblasts to iPS cells. It counts as cell-based, human. The procedure: Available reprogramming protocols include incubation of the cells in FBS in the first several days after viral transduction or electroporation, prior to switching the cells to UM100 (U.S. Pat. No. 7,439,064, incorporated herein as if set forth in its entirety) or CM. The simplified media described in previous Examples were tested for their ability to support reprogramming.
To determine if DF5S-based media can be used for viral-free iPS cell derivation, foreskin cells were reprogrammed using a viral-free episomal vector, as described in Yu et al., Science 324:797 (2009), incorporated herein by reference as if set forth in its entirety, at hypoxic conditions (O5C10).
Plasmid combinations #6 and #19 were used for the reprogramming. In order to enhance the plasmid entry into the nucleus, ENBA mRNA was electroporated along with plasmid DNA. Around one million cells were transferred onto two 6-well plates in DF5SFeC for 5 days. Medium was then switched to DF5SFe for another 18-25 days. Cells of some of the wells were passaged for a second time using a 1:6 ratio at different time points.

Assay [3] has as its system H1 cells. Put plainly: Cloning efficiency of H1 cells. It counts as cell-based, human. The procedure:
FIG. 2 A-F illustrate optimization of human ES cell and iPS cell culture conditions with DF5S. […] Cell survival was examined at 24 hours and 124 hours. […] DF5S trFe indicates DF5S media to which holotransferrin was added. FIG. 2E illustrates the cloning efficiency of H1 cells cultured in various media in the presence of HA100 (10 μM, 24 hours), blebbistatin (10 μM, 4 hours), or Y27632 (10 μM, 24 hours), compared to cloning efficiency in the absence of these factors (control). Asterisks indicate p<0.05. FIG. 2F illustrates cloning efficiency of H1 cells in conditioned medium (CM), CM with ROCK inhibitor (HA100), TeSR with ROCK inhibitor, and E8 with ROCK inhibitor in normoxic (dark gray bars) or hypoxic (light gray bars) conditions. Error bars indicate the standard error of the mean; asterisks indicate p<0.05.
To determine cloning efficiency at various oxygen and CO2 concentrations, 500 cells were seeded into each well. Even at low oxygen, cloning efficiency was too low (<2%) to determine effects of various conditions on cloning. HA100, a ROCK inhibitor known to increase cloning efficiency, was used to increase cloning efficiency for testing oxygen and CO2 concentrations. Conditioned medium (CM), known to be the best medium for cloning, was used as control.
The cells maintained a normal karyotype after more than 25 passages.

Assay [4] has as its system iPS cells. In words: Cloning efficiency of iPS cells. It is filed as cell-based, human. The settings on record: about 500 cells per well, in the presence of HA100, DF5S-based media versus TeSR or CM. The procedure:
To determine how DF5S affects cloning efficiency, two iPS cell lines were grown in DF5S and plated at cloning density (approximately 500 cells per 12-well plate well) in the presence of HA100. […] To identify such factor, individual TeSR™ components were added individually to DF5S and tested for effect on cloning efficiency.

The subject of assay [5] is foreskin cells. Put plainly: Foreskin cell growth in DF5SFe-based media. Details: species or system human. The procedure: To determine growth factors that can help primary foreskin cell growth, individual growth factors contained in FBS were tested. The FGF family of growth factors has several members, one or more of which is commonly used for fibroblast culture. DF5SFe contains 100 ng/ml zebrafish recombinant FGF2. Each FGF family member was tested for its ability to support foreskin cell growth. Foreskin cells were aliquoted into the well of culture plates and incubated for 24 hours in DF5SFe minus FGF. Individual FGF types were added at 100 ng/ml for 96 h.

Assay [6] concerns H1 ES cells. In words: Short term growth / proliferation after passaging. The settings on record: for cell proliferation after passaging: factor added to DMEM/F12, NaHCO3, insulin and FGF, L-ascorbic acid 64 mg/L. It counts as cell-based, human. The procedure: (§1) Five-hundred micro liter of various test media was loaded into each well of 12-well plates prior to the addition of cells. Adherent pluripotent cells were dissociated with TrypLE (Invitrogen) for 5 minutes or until fully detached from the culture plates. TrypLE was neutralized by adding an equal volume of media to the culture. The cells were counted, washed, and resuspended in fresh media at a concentration of 300,000 to 1,000,000 cells/ml. Approximately 100 μl of this cell solution was added into each well of the 12-well plates and the cells were incubated at 37° C. with 5% O2 and 10% CO2. Cells were again dissociated at various time points using 0.4 ml TrypLE, which was subsequently neutralized with equal volumes of 10% FBS in DMEM. The cells were counted by flow cytometry. 5000 count bright beads were added to each sample as internal control (approximately 200 beads were counted for each sample). All experiments were performed in triplicates.
TeSR medium contains six growth factors, in addition to those present in the basal medium, fibroblast growth factor (FGF), transforming growth factor beta (TGF-β), γ-aminobutyric acid (GABA), pipecolic acid, lithium chloride (LiCl), and insulin (Table 1). A basic nutrient medium (NM) was created containing all TeSR™ components with the exception of these six growth factors. About 2×10^5 H1 ES cells were dissociated and plated on Matrigel. The survival index was determined after 24 h. […] Thus, NM supplemented with FGF and Insulin supports human ES cell culture. Twelve different basal nutrient media supplemented as described above were able to support cell survival and growth (FIG. 1E).
NM contains 11 nutritional components, i.e., DMEM/F12, trace elements B, trace elements C, L-ascorbic acid, thiamine, selenium, L-glutamine, BSA, BME, sodium bicarbonate (NaHCO3), and transferrin (Table 1). […]
H1 cells grew faster in the DF5S medium compared to cells grown in TeSR™ (FIGS. 1C and 2A). […] To increase assay sensitivity only 5,000 cells were seeded in each well and analyzed for survival (24 h) and proliferation (124 h). […]

Assay [7] relates to H1 ES cells. In words: ES cell proliferation after insulin replacement. It counts as cell-based, human. To be noted: insulin replaced after 24 hours with 30 ng/ml; feeder-free culture. The procedure:
To determine whether IGF1 and IGF2 are sufficient to support ES cell proliferation in the absence of insulin, individualized H1 ES cells were plated onto Matrigel plates in TeSR (with insulin) for the first 24 hours. Then insulin was either removed or replaced with IGF1 (30 ng/ml) and IGF2 (30 ng/ml). Cell numbers were measured at specific time points, and the fold change in cell numbers was normalized to the cell counts at the time when insulin was first replaced.

Assay [8] has as its system H1 ES cells. Put plainly: ES cell survival in mTeSR without insulin. It counts as cell-based, human. The settings on record: for cell survival: 30 ng/ml added at 0 hour; for cell survival, dosage response: low concentration (e.g., 3 ng/ml), 24 hours. The procedure:
Pluripotent cell survival assays were carried out as described in Example 1. Media tested included mTeSR and mTeSR […]. IGF1R is known to be activated by insulin, IGF1 and IGF2 (Nguyen et al., Reproduction 134:41-49 (2007)). Accordingly, the inventors designed and carried out experiments to test how IGF1 or IGF2 could affect ES cell survival. Individualized H1 ES cells were plated in mTeSR™ with or without insulin (Sigma). IGF1 (30 ng/ml) and IGF2 (30 ng/ml) were added to media at 0 hour. […] Dosage response assays were conducted to determine useful concentrations of IGF1, IGF2, and Long-IGF-1 (Sigma) in pluripotent cell maintenance medium. Individualized H1 ES cells were plated in mTeSR without insulin, IGF1, IGF2 and Long-IGF1 were added at 0 hour, and cell survival was measured after 24 hours.

Assay [9] deals with H1 ES cells. In words: Pluripotent cell survival assay (24 h survival index after dissociation). It is filed as cell-based, human. To be noted: basic nutrient medium NM with or without additions, H1 ES cells on Matrigel. The procedure:
as §1, with “triplicates. TeSR medium contains six growth factors, in addition to those present in the basal medium, fibroblast growth factor (FGF), transforming growth factor beta (TGF-β), γ-aminobutyric acid (GABA), pipecolic acid, lithium chloride (LiCl), and insulin (Table 1). A basic nutrient medium (NM) was created containing all TeSR™ components with the exception of these six growth factors. […] The survival index was determined after 24 h. […]” for “triplicates.”

The mark [10] stands for this setting: in E8, HA100 10 μM 24 h, blebbistatin 10 μM 4 h, Y27632 10 μM 24 h, versus control.

For the compound `CCCC(=O)[O-].[Na+]` [Butyrate, sodium butyrate], the reprogramming efficiency result in assay [1] is “further enhanced reprogramming efficiency”. In [2] (foreskin fibroblasts), the “number of colonies during reprogramming” value is “did not increase the number of colonies” and the “ratio of true iPS cell to non-iPS cell colonies” value is given as “improved the ratio of true iPS cell to non-iPS cell colonies significantly”. Also, in assay [2] (reagent added to reprogramming media), the reprogramming efficiency result is “improved reprogramming efficiency”.
`O=S(=O)(c1cccc2cnccc12)N1CCNCC1` [HA100]: the cloning efficiency result is given as “increased cloning efficiency” in assay [3] (setting [10]); “significantly improved cloning efficiency” in assay [3] (in conditioned medium (CM), at both O5C10 and O15C5, 500 cells per well).
As to `C[C@]12CCC(=O)C=C1CC[C@@H]1[C@@H]2[C@@H](O)C[C@@]2(C)[C@H]1CC[C@]2(O)C(=O)CO` [Hydrocortisone, reference compound], in assay [4], the cloning efficiency result is “improved iPS cell cloning efficiency”. Further, in assay [5] (added to DF5SFe to replace FBS), the foreskin cell growth result is “improved cell growth significantly”.
Regarding `O=C(O)[C@@H]1C[C@@H](O)CN1` [Hydroxyproline], the “cell proliferation after passaging” value in assay [6] is on record as “could partially substitute for L-ascorbic acid”.
For the compound `O=C1O[C@H]([C@@H](O)CO)C(O)=C1O` [L-ascorbic acid], in assay [6], the “cell proliferation after passaging” value is “necessary for cell proliferation after passaging”.
With `C[C@@H](N)[C@H]1CC[C@H](C(=O)Nc2ccncc2)CC1` [Y27632], in assay [3] (setting [10]), the cloning efficiency entry was “increased cloning efficiency”.
For the compound `Cc1ccc2c(c1)C(=O)C1(O)CCN(c3ccccc3)C1=N2` (stereo not drawn) [blebbistatin], in assay [3] (setting [10]), the cloning efficiency result was “increased cloning efficiency”.
As for FGF1: FGF family member growth factor, the foreskin cell growth result in assay [5] (individual FGF added at 100 ng/ml for 96 h to DF5SFe minus FGF) is “supported foreskin cell growth most effectively”.
With IGF1: ligand of the IGF1R receptor, the cell proliferation result in assay [7] is “able to support cell proliferation”. Besides, in assay [8], the cell survival result is “rescued cell survival in the absence of insulin” and the “cell survival, dosage response” value was “can support hES cell survival in the absence of insulin”.
For the compound IGF2: ligand of the IGF1R receptor, in assay [7], the cell proliferation entry is recorded as “able to support cell proliferation”. Besides, in assay [8], the cell survival result is recorded as “rescued cell survival in the absence of insulin” and the “cell survival, dosage response” value is reported as “can support hES cell survival in the absence of insulin”.
With holo-transferrin, the cloning efficiency result in assay [3] (H1 cells in DF5S medium, transferrin added) is recorded as “noticeable improvement of cloning efficiency”; in assay [3] (setting [10]), “further increased”; in [4] it was “cloning efficiency comparable to that using TeSR™”.
On to insulin, for which, in assay [6] (added to NM, insulin 20 ug/ml, FGF2 100 ng/ml, 96 h, compared with TeSR), the cell growth entry is “did not support cell growth”. For the same compound, in assay [9], the “cell survival after dissociation (survival index)” value is on record as “cell survival similar to that observed with TeSR™”.
